The source of these data is paper PMC9067978, “Design, synthesis, and molecular docking studies of novel pomalidomide-based PROTACs as potential anti-cancer agents targeting EGFR^WT and EGFR^T790M” (Journal of Enzyme Inhibition and Medicinal Chemistry, 2022).

Entries after “also recorded” stand apart in the source; their conditions may differ.

The target of one assay is T1, EGFR^WT (Homo sapiens, UniProt P00533).
T1 construct: purchased Sigma
The assay can be described thus: EGFR^WT kinase inhibitory assay (HTRF). In kind it is biochemical. As to conditions: ATP 1.65 µM, mean ± S.D of three experiments. Here is the method: (§1) This test used HTRF[44] assay with EGFR^WT and EGFR^T790M (Sigma). For the first 5 minutes, the evaluated compounds were incubated with EGFR^WT and/or EGFR^T790M and their substrates in the enzymatic buffer. […] The assay was performed at 37 °C for 30 minutes. The addition of EDTA-containing detection reagents halted the process. After one hour detection period, GraphPad Prism 5.0 was used to calculate the IC50 values. For each concentration, three separate trials were carried out.
(TR-FRET usually uses a lanthanide donor and a delayed reading to cut background.)

Another assay addresses T2, EGFR^T790M (Homo sapiens, UniProt P00533, T790M).
T2 construct: purchased Sigma
The assay is described as follows: EGFR^T790M kinase inhibitory assay (HTRF). The note with it: ATP 1.65 µM, mean ± S.D of three experiments, read-out: EGFR^790M IC50. Type of assay: biochemical. How it is done: as §1

Another assay has as its target T3, EGFR (Homo sapiens, UniProt P00533).
T3 construct: EGFR degradation activities of compounds in A549 cells; endogenous in cells; host or cells: A549
The assay is described as follows: Western blotting, EGFR degradation in A549 cells. In kind it is cell-based. Here is the method: Following this, the target compounds 15–21 tethering various E3 ligases ligand were chosen as representative PROTACs for further degradation study based on temporal data.
Figure 4. (A) EGFR degradation activities of compounds in A549 cells. Cells were treated for 48 h with concentration of 0.1 and 1 µM. (B) Effects of concentration-dependent EGFR degradation by compounds 15–21 in A549 cell lines. Cells were treated for 48 h with a concentration from 1 nM to 10 µM. EGFR protein was examined by Western blotting analysis and EGFR degradation rate was quantified by densitometry and normalised to the corresponding density of β-actin protein (n ¼ 3). TEXT PRINTED IN THE PICTURE: (B) Comp 15: DC50 = 43.4 nm | (B) Comp 16: DC50= 32.9 nm DOUBTS OF THE COPYIST ABOUT THIS PICTURE: Comp 15, DC50: 43.4 is small blurred print; the 3 could be 8 and the digits are not certain / Comp 16, DC50: 32.9 is small blurred print; the 3 could be 8 and the 9 could be 8 or 0
We set nine concentration gradients ranging from […] to 10 µM to determine the degradation activity of all tested compounds and calculated the DC50 (concentration that caused deletion of 50% of EGFR) values.
(§2) At a concentration of 100 nM, the time-dependent degradation activities of compounds 15–21 were also examined (Figure 5(A)).
Figure 5. (A) EGFR time-dependent degradation by compound 16 in A549 cell lines. Cells were treated with100 nM of 15–21 for indicated time points. Western blotting was used to evaluate EGFR protein, and densitometry was used to measure EGFR degradation, which was adjusted to the density of β-actin protein (n ¼2). (B) Compounds 15 and 16 have EGFR degradation and phosphorylation inhibitory action in A549 cells. The cells were exposed to concentrations of 0.1, 0.3, and 1 µM. Erlotinib were utilised for comparison. TEXT PRINTED IN THE PICTURE: (A) Comp 15: Dmax = 85 % @ 96 h; Degradation: 9 (4 h; 100 nM); Degradation: 22 (8 h; 100 nM); Degradation: 42 (12 h; 100 nM); Degradation: 83 (24 h; 100 nM); Degradation: 84 (36 h; 100 nM); Degradation: 82 (48 h; 100 nM); Degradation: 82 (72 h; 100 nM); Degradation: 85 (96 h; 100 nM) | (A) Comp 16: Dmax = 96 % @72 h; Degradation: 32 (4 h; 100 nM); Degradation: 43 (8 h; 100 nM); Degradation: 67 (12 h; 100 nM); Degradation: 69 (24 h; 100 nM); Degradation: 78 (36 h; 100 nM); Degradation: 85 (48 h; 100 nM); Degradation: 96 (72 h; 100 nM); Degradation: 94 (96 h; 100 nM) DOUBTS OF THE COPYIST ABOUT THIS PICTURE: Comp 15, Dmax: print is blurred, 85 % @ 96 h is the best reading (85 or 86) / Comp 16, Dmax: print is small and blurred, 96 % @72 h is the best reading (96 or 95; the % sign is unclear) / Comp 15, Degradation row: print is blurred, 83/84/82/82/85 are best readings (3, 5, 8 are hard to tell apart) / Comp 16, Degradation row: print is blurred, 67/69/78/85/96/94 are best readings (5, 6, 8, 9 are hard to tell apart) / The Degradation rows are printed under the blot lanes with no unit. The value 0 under the 0.1 % DMSO control lane was not assigned to any compound.
Cells were seeded in 6-well plates at 1 × 10^6 per well, incubated at 37 °C with 5% CO2 for 24 h before drug exposure. Cells were treated with different concentrations of synthesised compounds for […], then collected and suspended in lysis buffer (Beyotime) and centrifuged for 20 min at 12000 rpm, later removed the insoluble material. […] The results were detected by an enhanced chemiluminescence system (Mill-pore). […]
Background: In western blotting, separated proteins are transferred to a membrane and probed.

The test system of another assay is EGFR phosphorylation. The assay is described as follows: Western blotting, EGFR phosphorylation in A549 cells. In kind it is cell-based, human. The note with it: A549 cells, 0.1, 0.3 and 1 µM, erlotinib for comparison. How it is done:
as §2
(§3) Figure 5. (A) EGFR time-dependent degradation by compound 16 in A549 cell lines. Cells were treated with100 nM of 15–21 for indicated time points. Western blotting was used to evaluate EGFR protein, and densitometry was used to measure EGFR degradation, which was adjusted to the density of β-actin protein (n ¼2). (B) Compounds 15 and 16 have EGFR degradation and phosphorylation inhibitory action in A549 cells. The cells were exposed to concentrations of 0.1, 0.3, and 1 µM. Erlotinib were utilised for comparison. […]
(§4) Cells were seeded in 6-well plates at 1 × 10^6 per well, incubated at 37 °C with 5% CO2 for 24 h before drug exposure. […] The results were detected by an enhanced chemiluminescence system (Mill-pore). […]

A further assay deals with Akt phosphorylation. The assay can be described thus: Western blotting, Akt phosphorylation in A549 cells. Type of assay: cell-based, human. The note with it: A549 cells, 0.1, 0.3 and 1 µM, erlotinib for comparison. Here is the method:
as §2, §3, §4

The test system of the next assay is A549. The assay can be described thus: MTT anti-proliferative assay, A549. As to conditions: Homo sapiens, A549, read-out: IC50 A549. Background: Formazan colour is commonly taken as a measure of viable cells.
A further assay relates to MCF-7. The assay can be described thus: MTT anti-proliferative assay, MCF-7. The note with it: Homo sapiens, MCF7, read-out: IC50 MCF-7.
For another assay, the system named is HepG-2. The assay is described as follows: MTT anti-proliferative assay, HepG-2. The note with it: Homo sapiens, HepG2, read-out: IC50 HepG-2.
The next assay concerns HCT-116. The assay can be described thus: MTT anti-proliferative assay, HCT-116. The note with it: Homo sapiens, HCT-116, read-out: IC50 HCT-116.

T2 sequence (P00533 25-1210 T790M): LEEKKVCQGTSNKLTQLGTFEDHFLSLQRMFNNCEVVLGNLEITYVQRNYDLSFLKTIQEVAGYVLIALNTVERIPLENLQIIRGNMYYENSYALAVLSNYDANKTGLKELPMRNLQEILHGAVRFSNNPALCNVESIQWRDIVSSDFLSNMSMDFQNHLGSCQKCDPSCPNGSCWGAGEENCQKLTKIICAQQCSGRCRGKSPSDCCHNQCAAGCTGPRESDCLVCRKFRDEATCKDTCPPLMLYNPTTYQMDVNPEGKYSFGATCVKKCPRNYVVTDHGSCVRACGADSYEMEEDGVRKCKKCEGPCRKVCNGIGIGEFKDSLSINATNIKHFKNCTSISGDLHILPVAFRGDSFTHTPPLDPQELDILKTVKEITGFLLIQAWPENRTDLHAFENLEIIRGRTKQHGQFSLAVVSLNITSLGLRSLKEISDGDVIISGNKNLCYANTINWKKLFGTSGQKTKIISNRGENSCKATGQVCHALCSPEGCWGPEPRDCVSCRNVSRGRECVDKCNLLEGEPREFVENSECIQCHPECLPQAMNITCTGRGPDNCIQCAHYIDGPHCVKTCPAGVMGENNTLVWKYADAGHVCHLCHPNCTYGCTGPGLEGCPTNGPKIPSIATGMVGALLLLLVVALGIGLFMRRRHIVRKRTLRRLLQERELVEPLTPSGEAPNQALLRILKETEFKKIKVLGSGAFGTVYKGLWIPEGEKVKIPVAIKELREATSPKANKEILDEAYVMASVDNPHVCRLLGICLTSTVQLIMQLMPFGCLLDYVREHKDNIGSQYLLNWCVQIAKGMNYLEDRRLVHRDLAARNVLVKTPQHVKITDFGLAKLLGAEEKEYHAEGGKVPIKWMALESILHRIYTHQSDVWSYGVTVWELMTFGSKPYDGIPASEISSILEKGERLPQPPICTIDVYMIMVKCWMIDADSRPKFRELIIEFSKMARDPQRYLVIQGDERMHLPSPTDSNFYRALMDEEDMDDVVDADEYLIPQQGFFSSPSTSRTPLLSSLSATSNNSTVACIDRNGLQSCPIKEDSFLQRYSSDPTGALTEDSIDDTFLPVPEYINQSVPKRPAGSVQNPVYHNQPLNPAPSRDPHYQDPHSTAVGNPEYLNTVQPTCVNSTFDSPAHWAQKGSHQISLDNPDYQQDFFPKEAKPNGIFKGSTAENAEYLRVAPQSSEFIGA
T1 sequence (P00533 25-1210): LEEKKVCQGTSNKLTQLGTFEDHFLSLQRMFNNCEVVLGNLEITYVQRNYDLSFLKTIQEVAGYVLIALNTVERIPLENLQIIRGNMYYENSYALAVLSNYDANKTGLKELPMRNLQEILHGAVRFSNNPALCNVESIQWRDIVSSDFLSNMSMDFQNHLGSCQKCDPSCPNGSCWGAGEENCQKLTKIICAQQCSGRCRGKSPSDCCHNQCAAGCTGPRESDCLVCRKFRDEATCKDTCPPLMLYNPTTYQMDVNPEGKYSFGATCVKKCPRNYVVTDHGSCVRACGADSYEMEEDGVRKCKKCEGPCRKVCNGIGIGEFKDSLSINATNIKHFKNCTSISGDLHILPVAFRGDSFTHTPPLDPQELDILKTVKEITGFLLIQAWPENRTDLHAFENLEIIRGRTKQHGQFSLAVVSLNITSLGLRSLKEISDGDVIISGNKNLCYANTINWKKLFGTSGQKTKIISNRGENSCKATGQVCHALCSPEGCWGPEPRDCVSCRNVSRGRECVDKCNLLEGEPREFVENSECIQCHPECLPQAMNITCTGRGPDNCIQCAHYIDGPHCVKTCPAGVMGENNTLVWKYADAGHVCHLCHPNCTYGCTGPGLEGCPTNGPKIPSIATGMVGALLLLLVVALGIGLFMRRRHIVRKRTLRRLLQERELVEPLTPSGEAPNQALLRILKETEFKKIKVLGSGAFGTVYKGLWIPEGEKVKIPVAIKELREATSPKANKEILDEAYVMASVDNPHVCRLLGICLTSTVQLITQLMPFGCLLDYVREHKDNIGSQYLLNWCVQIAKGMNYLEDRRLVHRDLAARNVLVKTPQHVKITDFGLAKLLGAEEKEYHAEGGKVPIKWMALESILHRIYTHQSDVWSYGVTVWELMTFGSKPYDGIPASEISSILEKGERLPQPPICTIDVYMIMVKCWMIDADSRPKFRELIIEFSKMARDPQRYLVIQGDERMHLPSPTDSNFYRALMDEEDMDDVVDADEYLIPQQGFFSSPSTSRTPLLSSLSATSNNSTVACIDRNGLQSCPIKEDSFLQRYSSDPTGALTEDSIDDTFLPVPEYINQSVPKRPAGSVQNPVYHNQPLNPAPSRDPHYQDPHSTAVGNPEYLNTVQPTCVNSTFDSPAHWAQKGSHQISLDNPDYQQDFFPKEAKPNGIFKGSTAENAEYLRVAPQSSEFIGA
T3 sequence (P00533 25-1210): as above
Experimental for HCT-116: (§5) The anti-proliferative activity was quantified in the following way. At a density of 3–8 × 10^3 cells per well, human cancer cell lines were introduced to 96-well plates. The wells were then incubated at 37 °C for 12 hours in 5% CO2 incubator. To determine the DMSO content, the culture media was swapped with 0.1 ml of fresh medium containing graded amounts of the test compounds for each well. Incubation time for the wells was two days. The cells were then cultured in 100 µl MTT solution (5 µg ml^−1) for another 4 hours in each well.
(§6) The absorbance of each well was measured at 490 nm with an automated ELISA reader system (TECAN, CHE) after MTT-formazan crystals were dissolved in 100 µl of DMSO. The IC50 values were calculated using nonlinear regression fitting models (Graph Pad, Prism Version 5). The results were expressed as means ± SD and were based on the average of three separate, duplicate trials.
Experimental for HepG-2: as §5, §6
Experimental for MCF-7: as §5, §6

One may read the IC50 as the concentration that gives 50% inhibition. Broadly, the Dmax is the greatest extent of degradation seen. As for `O=C1CCC(N2C(=O)c3cccc(NC(=O)COCCOCCn4nc5[nH]c6ccccc6nc-5c4=O)c3C2=O)C(=O)N1` (centres unmarked) [Compound 15, N-(2-(2,6-dioxopiperidin-3-yl)-1,3-dioxoisoindolin-4-yl)-2-(2-(2-(3-oxo-3,9-dihydro-2H-pyrazolo[3,4-b]quinoxalin-2-yl)ethoxy)ethoxy)acetamide], the IC50 is 220 ± 50 nM against EGFR^WT; 6.89 ± 0.31 µM on EGFR^T790M; 3.09 ± 0.15 µM in the assay with A549; 7.87 ± 0.31 µM in the assay on MCF-7; 3.89 ± 0.05 µM with HepG-2; 6.19 ± 0.27 µM in the assay with HCT-116. Also, the Dmax at 0.1 µM on EGFR (A549, A549 cells, 100 nM, time course, reached at 96 h (15) and 72 h (16), read-out: Dmax, maximum EGFR degradation rate) was found to be 86%. For the same molecule, on EGFR (A549 cells, 48 h, Western blotting densitometry, read-out: DC50 (concentration that caused deletion of 50% of EGFR)), the DC50 worked out at 43.4 nM. The “inhibition of EGFR phosphorylation, in words” value with EGFR phosphorylation is given as “effectively displayed inhibitory activity”. The “inhibition of Akt phosphorylation, in words” value in the assay on Akt phosphorylation was “effectively displayed inhibitory activity; also recorded: comparable to erlotinib”.

Regarding `O=C1CCC(N2C(=O)c3cccc(NC(=O)COCCOCCOCCNC(=O)c4nc5ccccc5[nH]c4=O)c3C2=O)C(=O)N1` (centres unmarked) [Compound 17, N-(2-(2-(2-(2-(2-(2,6-dioxopiperidin-3-yl)-1,3-dioxoisoindolin-4-ylamino)-2-oxoethoxy)ethoxy)ethoxy)ethyl)-3-oxo-3,4-dihydroquinoxaline-2-carboxamide], the IC50 against EGFR^WT stood at 190 ± 90 nM; at EGFR^T790M it was 6.26 ± 0.32 µM; in the assay with A549 it was 3.19 ± 0.19 µM; in the assay on MCF-7 it was 7.96 ± 0.35 µM; in the assay on HepG-2 it was 4.09 ± 0.11 µM; in the assay with HCT-116, 6.29 ± 0.35 µM.

On to `O=C1CCC(N2C(=O)c3cccc(NC(=O)COCCOCCNNC(=O)c4ccc(N=C5C(=O)Nc6ccccc65)cc4)c3C2=O)C(=O)N1` (centres unmarked) [Compound 18, N-(2-(2,6-dioxopiperidin-3-yl)-1,3-dioxoisoindolin-4-yl)-2-(2-(2-(2-(4-((2-oxoindolin-3-ylidene)amino)benzoyl)hydrazineyl)ethoxy)ethoxy)acetamide], for which the half-inhibitory concentration (IC50) at EGFR^WT turned out to be 650 ± 30 nM; at EGFR^T790M, 8.16 ± 0.28 µM; in the assay with A549, 4.67 ± 0.13 µM; in the assay with MCF-7, 8.26 ± 0.25 µM; in the assay with HepG-2, 6.26 ± 0.56 µM; with HCT-116, 6.79 ± 0.27 µM.

For the molecule `CN1C(=O)C(=Nc2ccc(C(=O)NNCCOCCOCC(=O)Nc3cccc4c3C(=O)N(C3CCC(=O)NC3=O)C4=O)cc2)c2ccccc21` (centres unmarked) [Compound 19, N-(2-(2,6-dioxopiperidin-3-yl)-1,3-dioxoisoindolin-4-yl)-2-(2-(2-(2-(4-(1-methyl-2-oxoindolin-3-ylideneamino)benzoyl)hydrazinyl)ethoxy)ethoxy)acetamide], the IC50 at EGFR^WT turned out to be 3020 ± 120 nM; on EGFR^T790M it was 14.1 ± 0.51 µM; in the assay on A549 it was 6.54 ± 0.32 µM; in the assay with MCF-7 it was 16.3 ± 0.71 µM; with HepG-2, 8.26 ± 0.36 µM; with HCT-116, 9.12 ± 0.38 µM.

In the case of `O=C(CSc1nc2ccccc2o1)NNCCOCCOCC(=O)Nc1cccc2c1C(=O)N(C1CCC(=O)NC1=O)C2=O` (centres unmarked) [Compound 20, 2-(2-(2-(2-(2-(benzo[d]oxazol-2-ylthio)acetyl)hydrazinyl)ethoxy)ethoxy)-N-(2-(2,6-dioxopiperidin-3-yl)-1,3-dioxoisoindolin-4-yl)acetamide], the IC50 against EGFR^WT worked out at 770 ± 50 nM; on EGFR^T790M, 16.3 ± 0.69 µM; in the assay on A549 it was 8.27 ± 0.25 µM; with MCF-7, 14.3 ± 0.69 µM; in the assay with HepG-2 it was 9.26 ± 0.39 µM; in the assay on HCT-116 it was 12.3 ± 0.71 µM.

Regarding `O=C(CSc1nc2ccccc2s1)NNCCOCCOCC(=O)Nc1cccc2c1C(=O)N(C1CCC(=O)NC1=O)C2=O` (centres unmarked) [Compound 21, 2-(2-(2-(2-(2-(benzo[d]thiazol-2-ylthio)acetyl)hydrazinyl)ethoxy)ethoxy)-N-(2-(2,6-dioxopiperidin-3-yl)-1,3-dioxoisoindolin-4-yl)acetamide], the IC50 at EGFR^WT worked out at 2270 ± 160 nM; at EGFR^T790M, 15.3 ± 0.61 µM; in the assay on A549, 7.27 ± 0.16 µM; in the assay on MCF-7, 16.3 ± 0.71 µM; with HepG-2 it was 9.86 ± 0.37 µM; with HCT-116, 13 ± 0.52 µM.

Take `COc1cccc2c1C(=O)c1c(O)c3c(c(O)c1C2=O)C[C@@](O)(C(=O)CO)C[C@@H]3O[C@H]1C[C@H](N)[C@H](O)[C@H](C)O1` [Doxorubicin, reference compound]: the IC50 came out at 7.89 ± 0.55 µM in the assay with MCF-7, 6.22 ± 0.45 µM with HepG-2 and 5.52 ± 0.25 µM in the assay on HCT-116.

With `C#Cc1cccc(Nc2ncnc3cc(OCCOC)c(OCCOC)cc23)c1` [Erlotinib, reference compound], the IC50 came out at 19.3 ± 1.85 µM in the assay on A549, 21.8 ± 1.85 µM with MCF-7, 13.1 ± 1.28 µM in the assay with HepG-2 and 16.8 ± 1.65 µM in the assay with HCT-116.
